According to PubChem BioAssay AID260 (DTP/NCI, 2004):
Where “and” joins values, the source holds several entries; their conditions need not be identical. Equal values may be shown once. Inconclusive results and toxic doses are left out.

Test system: CD2F1 mice, intracerebral L1210 leukemia, survival T/C
Test: NCI In Vivo Anticancer Drug Screen. Data for tumor model L1210 Leukemia (intracerebral) in CD2F1 (CDF1) mice
Details: higher = longer survival
Experimental: The antitumor activity of compounds was measured in mice bearing transplantable tumors. Survival or tumor size were measured and the results are expressed as the measurement made in the treated group (T) divided by the measurement made in the vehicle treated control group (C). The tumor model used in this assay is L1210 Leukemia (intracerebral) in CD2F1 (CDF1) mice

SMILES: COc1ccc2cc1Oc1ccc(cc1)C[C@H]1c3cc(c(OC)cc3CCN1C)Oc1c(OC)c(OC)cc3c1[C@H](C2)N(C)CC3
- T/C (endpoint: median survival time, dose: 50.0 mg/kg/injection, schedule: Q01DX005 (ip), vehicle: Klucel (hydroxypropylcellulose) (HPC)): 90 % of control and 91 % of control
- T/C (endpoint: median survival time, dose: 100.0 mg/kg/injection, schedule: Q01DX005 (ip), vehicle: Klucel (hydroxypropylcellulose) (HPC)): 95 % of control and 98 % of control
- T/C (endpoint: median survival time, dose: 200.0 mg/kg/injection, schedule: Q01DX005 (ip), vehicle: Klucel (hydroxypropylcellulose) (HPC)): 95 % of control and 104 % of control
- T/C (endpoint: median survival time, dose: 400.0 mg/kg/injection, schedule: Q01DX005 (ip), vehicle: Klucel (hydroxypropylcellulose) (HPC)): 101 % of control

SMILES: C[n+]1c2ccccc2nc2c(N)cc(N)cc21
- T/C (endpoint: median survival time, dose: 4.0 mg/kg/injection, schedule: Q01DX005 (ip), vehicle: suspension in saline): 93 % of control and 98 % of control
- T/C (endpoint: median survival time, dose: 8.0 mg/kg/injection, schedule: Q01DX005 (ip), vehicle: suspension in saline): 102 % of control
- T/C (endpoint: median survival time, dose: 16.0 mg/kg/injection, schedule: Q01DX005 (ip), vehicle: suspension in saline): 96 % of control and 98 % of control
- T/C (endpoint: median survival time, dose: 32.0 mg/kg/injection, schedule: Q01DX005 (ip), vehicle: suspension in saline): 96 % of control and 97 % of control

SMILES: O=C1C(N2CC2)=C(N2CCCC(O)C2)C(=O)C(N2CC2)=C1N1CCCC(O)C1 (configuration not stated)
- T/C (endpoint: mean survival time, dose: 2.0 mg/kg/injection, schedule: Q04DX003 (ip), vehicle: saline): 103 % of control and 110 % of control
- T/C (endpoint: mean survival time, dose: 4.0 mg/kg/injection, schedule: Q04DX003 (ip), vehicle: saline): 121 % of control and 110 % of control
- T/C (endpoint: mean survival time, dose: 6.0 mg/kg/injection, schedule: Q04DX003 (ip), vehicle: saline): 114 % of control
- T/C (endpoint: mean survival time, dose: 8.0 mg/kg/injection, schedule: Q04DX003 (ip), vehicle: saline): 114 % of control

SMILES: Nc1nc2c(c(=O)[nH]1)N(C=O)C(CNc1ccc(C(=O)N[C@@H](CCC(=O)O)C(=O)O)cc1)CN2 (some centres not stated)
- T/C (endpoint: median survival time, dose: 128.0 mg/kg/injection, schedule: Q01DX005 (ip), vehicle: saline): 96 % of control and 106 % of control
- T/C (endpoint: median survival time, dose: 256.0 mg/kg/injection, schedule: Q01DX005 (ip), vehicle: saline): 95 % of control and 108 % of control
- T/C (endpoint: median survival time, dose: 512.0 mg/kg/injection, schedule: Q01DX005 (ip), vehicle: saline): 92 % of control and 96 % of control

SMILES: CN(C)CC(=O)c1ccc(O)c(O)c1
- T/C (endpoint: median survival time, dose: 100.0 mg/kg/injection, schedule: Q01DX005 (ip), vehicle: saline): 95 % of control and 107 % of control
- T/C (endpoint: median survival time, dose: 200.0 mg/kg/injection, schedule: Q01DX005 (ip), vehicle: saline): 109 % of control
- T/C (endpoint: median survival time, dose: 400.0 mg/kg/injection, schedule: Q01DX005 (ip), vehicle: saline): 290 % of control and 103 % of control
- T/C (endpoint: median survival time, dose: 800.0 mg/kg/injection, schedule: Q01DX005 (ip), vehicle: saline): 88 % of control and 110 % of control

SMILES: NC(=O)CNC1=C(N2CC2)C(=O)C(NCC(N)=O)=C(N2CC2)C1=O
- T/C (endpoint: mean survival time, dose: 2.5 mg/kg/injection, schedule: Q01DX009 (ip), vehicle: saline): 101 % of control and 116 % of control
- T/C (endpoint: mean survival time, dose: 5.0 mg/kg/injection, schedule: Q01DX009 (ip), vehicle: saline): 110 % of control and 113 % of control
- T/C (endpoint: mean survival time, dose: 10.0 mg/kg/injection, schedule: Q01DX009 (ip), vehicle: saline): 105 % of control and 116 % of control
- T/C (endpoint: mean survival time, dose: 15.0 mg/kg/injection, schedule: Q01DX009 (ip), vehicle: saline): 101 % of control and 113 % of control

SMILES: COC1OC(CO)C(O)C(NC(=O)N(C)N=O)C1O (configuration not stated)
- T/C (endpoint: median survival time, dose: 0.5 mg/kg/injection, schedule: Q01DX009 (ip), vehicle: saline): 102 % of control
- T/C (endpoint: median survival time, dose: 1.0 mg/kg/injection, schedule: Q01DX009 (ip), vehicle: saline): 107 % of control
- T/C (endpoint: median survival time, dose: 2.0 mg/kg/injection, schedule: Q01DX009 (ip), vehicle: saline): 111 % of control
- T/C (endpoint: median survival time, dose: 4.0 mg/kg/injection, schedule: Q01DX009 (ip), vehicle: saline): 111 % of control
- T/C (endpoint: median survival time, dose: 8.0 mg/kg/injection, schedule: Q01DX009 (ip), vehicle: saline): 116 % of control
- T/C (endpoint: median survival time, dose: 16.0 mg/kg/injection, schedule: Q01DX009 (ip), vehicle: saline): 102 % of control

SMILES: CN(N=O)C(=O)N[C@@H](C=O)[C@@H](O)[C@H](O)[C@H](O)CO
- T/C (endpoint: mean survival time, dose: 50.0 mg/kg/injection, schedule: Q01DX005 (ip), vehicle: saline): 100 % of control
- T/C (endpoint: mean survival time, dose: 50.0 mg/kg/injection, schedule: Q01DX009 (ip), vehicle: saline): 102 % of control
- T/C (endpoint: mean survival time, dose: 100.0 mg/kg/injection, schedule: Q01DX005 (ip), vehicle: saline): 102 % of control
- T/C (endpoint: mean survival time, dose: 100.0 mg/kg/injection, schedule: Q01DX009 (ip), vehicle: saline): 100 % of control
- T/C (endpoint: mean survival time, dose: 200.0 mg/kg/injection, schedule: Q01DX005 (ip), vehicle: saline): 104 % of control
- T/C (endpoint: mean survival time, dose: 200.0 mg/kg/injection, schedule: Q01DX009 (ip), vehicle: saline): 100 % of control
- T/C (endpoint: mean survival time, dose: 400.0 mg/kg/injection, schedule: Q01DX009 (ip), vehicle: saline): 95 % of control
- T/C (endpoint: median survival time, dose: 75.0 mg/kg/injection, schedule: Q01DX001 (ip), vehicle: DMSO): 102 % of control
- T/C (endpoint: median survival time, dose: 75.0 mg/kg/injection, schedule: Q01DX001 (ip), vehicle: other): 103 % of control
- T/C (endpoint: median survival time, dose: 75.0 mg/kg/injection, schedule: Q01DX001 (oral), vehicle: saline): 109 % of control
- T/C (endpoint: median survival time, dose: 150.0 mg/kg/injection, schedule: Q01DX001 (ip), vehicle: DMSO): 114 % of control
- T/C (endpoint: median survival time, dose: 150.0 mg/kg/injection, schedule: Q01DX001 (ip), vehicle: other): 107 % of control
- T/C (endpoint: median survival time, dose: 150.0 mg/kg/injection, schedule: Q01DX001 (oral), vehicle: saline): 100 % of control
- T/C (endpoint: median survival time, dose: 300.0 mg/kg/injection, schedule: Q01DX001 (ip), vehicle: DMSO): 114 % of control
- T/C (endpoint: median survival time, dose: 300.0 mg/kg/injection, schedule: Q01DX001 (ip), vehicle: other): 109 % of control
- T/C (endpoint: median survival time, dose: 300.0 mg/kg/injection, schedule: Q01DX001 (oral), vehicle: saline): 113 % of control
- T/C (endpoint: median survival time, dose: 500.0 mg/kg/injection, schedule: Q01DX001 (ip), vehicle: DMSO): 112 % of control
- T/C (endpoint: median survival time, dose: 500.0 mg/kg/injection, schedule: Q01DX001 (ip), vehicle: other): 103 % of control
- T/C (endpoint: median survival time, dose: 500.0 mg/kg/injection, schedule: Q01DX001 (oral), vehicle: saline): 100 % of control

SMILES: Nc1nc(=S)c2[nH]cnc2[nH]1
- T/C (endpoint: mean survival time, dose: 0.13 mg/kg/injection, schedule: Q01DX009 (ip), vehicle: other): 102 % of control
- T/C (endpoint: mean survival time, dose: 0.25 mg/kg/injection, schedule: Q01DX009 (ip), vehicle: other): 111 % of control
- T/C (endpoint: mean survival time, dose: 0.5 mg/kg/injection, schedule: Q01DX009 (ip), vehicle: other): 108 % of control
- T/C (endpoint: mean survival time, dose: 1.0 mg/kg/injection, schedule: Q01DX009 (ip), vehicle: other): 114 % of control

SMILES: Cc1ncc(CO)c(C)c1O
- T/C (endpoint: median survival time, dose: 128.0 mg/kg/injection, schedule: Q01DX005 (ip), vehicle: Klucel (hydroxypropylcellulose) (HPC)): 105 % of control and 106 % of control
- T/C (endpoint: median survival time, dose: 256.0 mg/kg/injection, schedule: Q01DX005 (ip), vehicle: Klucel (hydroxypropylcellulose) (HPC)): 111 % of control and 114 % of control

SMILES: CCN(CC)c1ccc2cc3ccc(=[N+](CC)CC)cc-3oc2c1
- T/C (endpoint: median survival time, dose: 4.0 mg/kg/injection, schedule: Q01DX005 (ip), vehicle: saline): 104 % of control
- T/C (endpoint: median survival time, dose: 8.0 mg/kg/injection, schedule: Q01DX005 (ip), vehicle: saline): 98 % of control
- T/C (endpoint: median survival time, dose: 16.0 mg/kg/injection, schedule: Q01DX005 (ip), vehicle: saline): 105 % of control and 113 % of control

SMILES: COC(=O)c1cccc(N=NN(C)C)c1
- T/C (endpoint: median survival time, dose: 8.0 mg/kg/injection, schedule: Q01DX005 (ip), vehicle: saline + alcohol): 104 % of control
- T/C (endpoint: median survival time, dose: 16.0 mg/kg/injection, schedule: Q01DX005 (ip), vehicle: saline + alcohol): 100 % of control
- T/C (endpoint: median survival time, dose: 32.0 mg/kg/injection, schedule: Q01DX005 (ip), vehicle: saline + alcohol): 104 % of control
- T/C (endpoint: median survival time, dose: 64.0 mg/kg/injection, schedule: Q01DX005 (ip), vehicle: saline + alcohol): 113 % of control
- T/C (endpoint: median survival time, dose: 128.0 mg/kg/injection, schedule: Q01DX005 (ip), vehicle: saline + alcohol): 117 % of control
